ChEMBL document CHEMBL5465560, “Selectivity Literature for EUbOPEN Chemogenomic Library” (2024)

Tests used:
[1] = molecular target: T1, Dual specificity mitogen-activated protein kinase kinase 6 (Homo sapiens) (UniProt P52564); test: Selectivity interaction (KinomeScan (DiscoverX)) EUB0000229b MAP2K6; details: at 10 µM
T1 sequence (whole entry): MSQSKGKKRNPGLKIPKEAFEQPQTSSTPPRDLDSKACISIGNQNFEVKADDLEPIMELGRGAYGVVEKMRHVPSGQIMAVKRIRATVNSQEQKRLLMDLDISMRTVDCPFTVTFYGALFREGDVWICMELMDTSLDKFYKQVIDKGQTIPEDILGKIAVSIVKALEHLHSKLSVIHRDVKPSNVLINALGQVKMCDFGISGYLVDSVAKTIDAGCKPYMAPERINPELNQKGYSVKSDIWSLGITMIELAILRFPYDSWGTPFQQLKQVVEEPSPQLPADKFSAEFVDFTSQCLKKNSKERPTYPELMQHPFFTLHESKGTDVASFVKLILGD

[2] = molecular target: T2, Phosphatidylinositol 5-phosphate 4-kinase type-2 gamma (Homo sapiens) (UniProt Q8TBX8); test: Selectivity interaction (KinomeScan (DiscoverX)) EUB0000595a PIP4K2C; details: at 10 µM
T2 sequence (whole entry): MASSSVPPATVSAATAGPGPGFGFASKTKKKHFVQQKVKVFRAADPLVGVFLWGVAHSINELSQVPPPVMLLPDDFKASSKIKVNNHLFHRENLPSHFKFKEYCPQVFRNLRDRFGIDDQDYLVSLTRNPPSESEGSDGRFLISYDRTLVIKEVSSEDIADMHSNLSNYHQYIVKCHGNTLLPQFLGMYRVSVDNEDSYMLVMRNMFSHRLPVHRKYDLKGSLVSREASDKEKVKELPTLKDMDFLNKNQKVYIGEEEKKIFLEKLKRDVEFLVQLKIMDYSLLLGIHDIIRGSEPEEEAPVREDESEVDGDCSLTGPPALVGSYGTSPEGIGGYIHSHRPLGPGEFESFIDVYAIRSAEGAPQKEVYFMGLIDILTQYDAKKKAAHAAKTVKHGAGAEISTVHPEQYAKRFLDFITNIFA

[3] = molecular target: Serine/threonine-protein kinase 32B (Homo sapiens) (UniProt Q9NY57); test: Selectivity interaction (KinomeScan (DiscoverX)) EUB0000695a STK32B; details: at 100 nM
[4] = molecular target: Mitogen-activated protein kinase 11 (Homo sapiens) (UniProt Q15759); test: Selectivity interaction (KinomeScan (DiscoverX)) EUB0000695a MAPK11; details: at 100 nM
[5] = molecular target: T3, Tyrosine-protein kinase ITK/TSK (Homo sapiens) (UniProt Q08881); test: Selectivity interaction (SelectScreen profiling (Invitrogen)) EUB0000607a ITK; details: at 2 µM
T3 sequence (whole entry): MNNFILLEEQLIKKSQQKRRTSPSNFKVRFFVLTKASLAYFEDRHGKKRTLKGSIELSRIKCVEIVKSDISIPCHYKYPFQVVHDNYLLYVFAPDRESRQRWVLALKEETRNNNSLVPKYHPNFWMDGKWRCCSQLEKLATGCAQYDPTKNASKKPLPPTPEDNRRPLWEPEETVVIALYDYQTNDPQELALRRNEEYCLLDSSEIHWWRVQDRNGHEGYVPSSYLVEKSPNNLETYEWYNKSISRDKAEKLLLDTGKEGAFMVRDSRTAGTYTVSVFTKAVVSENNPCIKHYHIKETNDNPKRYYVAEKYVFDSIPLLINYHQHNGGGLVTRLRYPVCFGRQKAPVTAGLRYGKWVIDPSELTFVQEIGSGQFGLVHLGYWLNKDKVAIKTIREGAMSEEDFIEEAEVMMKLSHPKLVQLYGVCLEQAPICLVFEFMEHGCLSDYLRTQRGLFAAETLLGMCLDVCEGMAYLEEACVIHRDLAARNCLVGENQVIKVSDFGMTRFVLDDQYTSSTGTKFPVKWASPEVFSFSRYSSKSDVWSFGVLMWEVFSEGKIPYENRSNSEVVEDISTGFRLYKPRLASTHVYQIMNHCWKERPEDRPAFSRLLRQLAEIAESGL

[6] = molecular target: T4, Serine/threonine-protein kinase Nek3 (Homo sapiens) (UniProt P51956); test: Selectivity interaction (KinomeScan (DiscoverX)) EUB0000618a NEK3; details: at 10 µM
T4 sequence (whole entry): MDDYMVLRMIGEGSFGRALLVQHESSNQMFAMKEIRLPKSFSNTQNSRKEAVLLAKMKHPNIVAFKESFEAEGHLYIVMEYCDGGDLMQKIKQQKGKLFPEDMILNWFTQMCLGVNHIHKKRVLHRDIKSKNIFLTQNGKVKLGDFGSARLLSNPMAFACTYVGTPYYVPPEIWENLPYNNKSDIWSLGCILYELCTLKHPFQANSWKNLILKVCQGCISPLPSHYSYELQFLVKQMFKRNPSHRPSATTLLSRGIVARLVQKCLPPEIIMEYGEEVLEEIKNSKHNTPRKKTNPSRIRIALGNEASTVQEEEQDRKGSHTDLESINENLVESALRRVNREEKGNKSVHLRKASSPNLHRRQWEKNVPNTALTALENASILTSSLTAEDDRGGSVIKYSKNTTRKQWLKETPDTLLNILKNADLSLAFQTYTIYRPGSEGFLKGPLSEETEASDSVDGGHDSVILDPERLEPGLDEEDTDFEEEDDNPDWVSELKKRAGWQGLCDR

[7] = molecular target: T5, Atypical kinase COQ8B, mitochondrial (Homo sapiens) (UniProt Q96D53); test: Selectivity interaction (Ambit KINOMEscan and KiNATiv profiling in Jurkat cells) EUB0000090b ADCK4; format: cell-based; details: at 1 µM
T5 sequence (whole entry): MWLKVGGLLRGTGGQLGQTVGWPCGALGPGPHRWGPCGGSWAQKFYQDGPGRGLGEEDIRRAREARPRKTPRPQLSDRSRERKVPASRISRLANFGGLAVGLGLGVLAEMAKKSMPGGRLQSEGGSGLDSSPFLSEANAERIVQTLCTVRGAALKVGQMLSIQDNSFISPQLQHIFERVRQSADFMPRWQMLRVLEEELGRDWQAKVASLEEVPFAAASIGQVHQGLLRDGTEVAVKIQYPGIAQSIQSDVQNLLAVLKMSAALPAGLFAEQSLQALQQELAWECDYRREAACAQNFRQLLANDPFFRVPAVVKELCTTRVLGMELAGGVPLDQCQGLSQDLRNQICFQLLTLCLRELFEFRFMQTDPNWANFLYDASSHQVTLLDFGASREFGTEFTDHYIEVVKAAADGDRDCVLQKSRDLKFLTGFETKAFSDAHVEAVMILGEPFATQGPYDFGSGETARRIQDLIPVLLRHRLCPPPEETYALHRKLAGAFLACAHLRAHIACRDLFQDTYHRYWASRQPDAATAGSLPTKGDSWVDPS

Mitogen-activated protein kinase 11 (Homo sapiens), sequence (Q15759 whole entry): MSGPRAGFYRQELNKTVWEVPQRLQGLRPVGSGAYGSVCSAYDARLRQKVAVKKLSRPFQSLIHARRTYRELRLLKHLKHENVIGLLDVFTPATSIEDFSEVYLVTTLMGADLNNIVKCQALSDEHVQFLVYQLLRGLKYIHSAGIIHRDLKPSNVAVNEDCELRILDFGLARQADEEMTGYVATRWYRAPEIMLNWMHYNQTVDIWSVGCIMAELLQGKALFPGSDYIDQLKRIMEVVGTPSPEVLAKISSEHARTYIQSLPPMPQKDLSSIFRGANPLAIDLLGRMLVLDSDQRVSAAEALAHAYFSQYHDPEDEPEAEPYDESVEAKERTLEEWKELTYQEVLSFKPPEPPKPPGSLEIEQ
Serine/threonine-protein kinase 32B (Homo sapiens), sequence (Q9NY57 whole entry): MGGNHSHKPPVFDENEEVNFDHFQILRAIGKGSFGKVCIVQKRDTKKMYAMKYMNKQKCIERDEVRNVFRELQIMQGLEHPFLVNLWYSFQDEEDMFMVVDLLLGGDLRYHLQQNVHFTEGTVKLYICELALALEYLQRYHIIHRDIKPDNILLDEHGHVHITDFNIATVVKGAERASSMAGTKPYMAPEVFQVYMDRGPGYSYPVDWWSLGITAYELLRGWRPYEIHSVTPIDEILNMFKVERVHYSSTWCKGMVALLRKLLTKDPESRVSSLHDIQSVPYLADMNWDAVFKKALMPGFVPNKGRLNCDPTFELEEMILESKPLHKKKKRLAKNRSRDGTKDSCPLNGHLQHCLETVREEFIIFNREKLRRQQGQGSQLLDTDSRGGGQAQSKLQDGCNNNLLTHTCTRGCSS

COc1cc(N(C)c2ccnc3ccc(C(F)(F)F)cc23)cc(OC)c1OC
% binding [1]: 75%

COCC(=O)NC/C=C/c1ccc2ncnc(Nc3ccc(Oc4ccc(C)nc4)c(C)c3)c2c1 [CP-724714]
% of control [2]: 84%

Cc1cc(F)c(C(=O)Nc2cccc(-c3nncn3C(C)C)n2)cc1-n1cnc(C2CC2)c1
% of control [3]: 93%
% of control [4]: 100%

CNC(=O)Nc1ccc(-c2nc(N3CC4CCC(C3)O4)c3cnn(C4CCC5(CC4)OCCO5)c3n2)cc1
% of inhibition [5]: 2%

O[C@H]1CC[C@H](Nc2ncc3nc(Nc4c(F)cc(F)cc4F)n([C@H]4CCOC4)c3n2)CC1
% of control [6]: 100%

CN(C)C/C=C/C(=O)Nc1ccc(C(=O)N2CCCC(Nc3ncc(Cl)c(-c4c[nH]c5ccccc45)n3)C2)cc1 (configuration not stated)
% of control [7]: 69%
